The source of these data is patent US9546201B2, “MUC-1 cytoplasmic domain peptides as inhibitors of cancer” (DANA-FARBER CANCER INSTITUTE, INC., priority 2008, dated 2017).

Experiment [1] concerns the target T1, complexes of GFP-MUC1-CD and Flag-MUC1-CD (Homo sapiens, UniProt P15941).
T1 construct: expressed in transfected cells; host or cells: 293 cells
T1 sequence (P15941 1184-1255 limits assumed): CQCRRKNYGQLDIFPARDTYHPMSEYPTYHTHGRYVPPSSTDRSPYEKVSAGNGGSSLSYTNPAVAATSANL
Nature of the experiment: Coprecipitation of GFP-MUC1-CD and Flag-MUC1-CD in transfected 293 cells. In kind it is cell-based. The note with it: 5 μM peptide for 3 d. The method, then:
(§1) FIGS. 1A-D. MUC1/CQC peptide blocks MUC1 oligomerization. (FIG. 1A) Schematic representation of the MUC1-C subunit and the 72-amino acid sequence of MUC1-CD (SEQ ID NO: 1) are shown. The N-terminal 15 amino acids (shaded sequence; SEQ ID NO: 3) MUC1/CQC (SEQ ID NO: 63) and mutated MUC1/AQA (SEQ ID NO: 60) peptides were synthesized with the poly-dArg transduction domain. (FIG. 1B) His-MUC1-CD (1.4 mg/ml) was immobilized on a sensor chip in a BIAcore. MUC1/CQC was injected over the chip at 10 μM. Raw binding data were analyzed by BIAevaluation software version 3.0 and fit to a 1:1 Languir binding model. (FIG. 1C) Purified His-MUC1-CD (1.5 mg/ml) was incubated with PBS, 200 μM MUC1/CQC or 200 μM MUC1/AQA for 1 h at room temperature. The proteins were separated in a non-reducing SDS-polyacrylamide gel and analyzed by immunoblotting with anti-MUC1-C. […]
Whole cell and nuclear lysates were prepared as described (Leng et al., 2007). […] Immunoprecitates and soluble proteins were analyzed by immunoblotting with anti-His (Cell Signaling Technology, Danvers, Mass.), anti-GFP (Millipore, Danvers, Mass.), anti-Flag, anti-MUC1-C (Abl; NeoMarkers, Fremont, Calif.), anti-lamin B (EMD, La Jolla, Calif.) or anti-β-actin (Sigma). Reactivity was detected with horseradish peroxidase-conjugated second antibodies and chemiluminescence. […]

A further experiment deals with ZR-75-1 cells. Nature of the experiment: Cell cycle distribution, apoptosis and necrosis by flow cytometry, ZR-75-1. The class given is cell-based, human. The note with it: 5 μM; for induction of necrosis: detectable at 72 h, more prominent at 96 h. The method, then:
FIGS. 3A-D. MUC1/CQC peptide induces S phase arrest and necrosis. ZR-75-1 (FIGS. 3A-B) and MCF-7 (FIGS. 3C-D) cells were treated with 5 μM MUC1/CQC or MUC1/AQA for 3 and 4 d. Cells were fixed and analyzed for cell cycle distribution by flow cytometry (FIGS. 3A and 3C). The percentage of cells in G1, S and G2/M phases is included in the panels. Cells were also stained with propidium iodide and analyzed by flow cytometry for necrosis (FIGS. 3B and 3D). The percentage of necrotic cells is included in the panels.
Cells were harvested, washed with PBS, fixed with 80% ethanol, and incubated in PBS containing 40 μg/ml RNAse and 40 μg/ml propidium iodide for 30 min at 37° C. Cell cycle distribution was determined by flow cytometry. Sub-G1 DNA content was assessed by staining ethanol-fixed and citrate buffer-permeabilized cells with propidium iodide and monitoring by flow cytometry as described (Yin et al., 2007). For assessment of necrosis, cells were incubated with 1 μg/ml propidium iodide/PBS for 5 min at room temperature and then monitored by flow cytometry as described (Yin et al., 2007).
To determine whether the MUC1/CQC peptide affects growth, ZR-75-1 cells were treated with 5 μM MUC1/CQC for 72 h and monitored for cell cycle distribution. […] These findings indicate that the MUC1/CQC peptide inhibits growth and induces necrosis of human breast cancer cells.
Background: In flow cytometry, cells or beads pass a laser one at a time.

For another experiment, the target named is T2, His-MUC1-CD oligomers (Homo sapiens, UniProt P15941).
T2 sequence (P15941 1184-1255): T1 sequence (P15941 1184-1255 limits assumed)
Nature of the experiment: Oligomer formation of purified His-MUC1-CD (non-reducing SDS-polyacrylamide gel, anti-MUC1-C immunoblot). In kind it is biochemical. Particulars: 200 μM peptide, 1 h at room temperature. The method, then:
as §1, with “anti-MUC1-C. (FIG. 1D) 293 cells were transiently transfected to express an empty vector or GFP-MUC1-CD and Flag-MUC1-CD. At 48 h after transfection, the cells were treated with 5 μM MUC1/CQC or MUC1/AQA for 3 d. The cells were then harvested for immunoblotting with anti-MUC1-C (left panel).” for “anti-MUC1-C.”
The MUC1 cytoplasmic domain (MUC1-CD) contains a CQC motif that is necessary for the formation of oligomers and nuclear localization (Leng et al., 2007). […] Purified His-tagged MUC1-CD forms oligomers as detected by electrophoresis in polyacrylamide gels (FIG. 1C). […]

Where a SMILES comes first, the peptide text is derived from it. Where no end group is shown, it is not given here. [ ]: non-standard residue; d: D form.

As to `CC[C@H](C)[C@H](NC(=O)[C@H](CC(=O)O)NC(=O)[C@H](CC(C)C)NC(=O)[C@H](CCC(N)=O)NC(=O)CNC(=O)[C@H](Cc1ccc(O)cc1)NC(=O)[C@H](CC(N)=O)NC(=O)[C@H](CCCCN)NC(=O)[C@H](CCCNC(=N)N)NC(=O)[C@H](CCCNC(=N)N)NC(=O)[C@H](CS)NC(=O)[C@H](CCC(N)=O)NC(=O)[C@H](CS)NC(=O)[C@@H](CCCNC(=N)N)NC(=O)[C@@H](CCCNC(=N)N)NC(=O)[C@@H](CCCNC(=N)N)NC(=O)[C@@H](CCCNC(=N)N)NC(=O)[C@@H](CCCNC(=N)N)NC(=O)[C@@H](CCCNC(=N)N)NC(=O)[C@@H](CCCNC(=N)N)NC(=O)[C@@H](CCCNC(=N)N)NC(=O)[C@H](N)CCCNC(=N)N)C(=O)N[C@@H](Cc1ccccc1)C(=O)N1CCC[C@H]1C(=O)O` [MUC1/CQC] (H-[dR][dR][dR][dR][dR][dR][dR][dR][dR]CQCRRKNYGQLDIFP-OH; N-terminus and C-terminus assumed), in experiment [1], the “interaction between Flag-MUC1-CD and GFP-MUC1-CD” value is “disruption of the interaction”. In addition, in the experiment on ZR-75-1 cells, the “sub-G1 DNA content (apoptosis)” value was “little if any accumulation of cells with sub-G1 DNA content” and the induction of necrosis result is “induction of necrosis”. In the experiment on ZR-75-1 cells (72 h), the cell cycle distribution entry is recorded as “substantial arrest in S phase”. The S phase population entry in the experiment on ZR-75-1 cells (96 h) is “S phase population was decreased”. Also, the “oligomer formation of His-MUC1-CD” value on His-MUC1-CD oligomers is on record as “substantially decreased oligomer formation”.
In the case of “MUC1/AQA: control peptide in which the CQC motif was altered to AQA, with poly-dArg transduction domain; SEQ ID NO: 60 ([dR][dR][dR][dR][dR][dR][dR][dR][dR]AQARRKNYGQLDIFP) [reference compound]”, in experiment [1], the “interaction between Flag-MUC1-CD and GFP-MUC1-CD” value is recorded as “no apparent effect”. For the same compound, in the experiment with ZR-75-1 cells, the induction of necrosis entry was “not”. Besides, the “oligomer formation of His-MUC1-CD” value with His-MUC1-CD oligomers is recorded as “little if any effect”.
